From the supplement of paper PMC6045584
± gives the standard deviation of the averaged measurements.

Columns and labels:
TEMOZOLOMIDE = compound: Cn1nnc2c(C(N)=O)ncn2c1=O [TEMOZOLOMIDE]; experiment: surviving fraction relative to DMSO-only wells; higher = less growth inhibition; details: exposure time: 5 days
Summary of the method: (§1)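 Lines were retained only if, across three screens, replicate Pearson r was >0.7 and median Z' was >0.3. Viability was measured as CellTiter-Glo luminescence and reported as surviving fraction relative to the median of DMSO-only wells. Readings followed 10 minutes at room temperature, after log-phase tumour cells seeded at 250–500 per well in 384-well plates had been exposed, from 24 hours after seeding, continuously for five days to inhibitors at 0.5, 1, 5, 10, 50, 100, 500 and 1000 nM.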

[1] = compound: CCn1c(C(=O)N(C2CC2)C2CC2)cc2c3c(ncn3C)c(Nc3cc(C)n(C)n3)nc21; experiment: as above; details: exposure time: 5 days
Summary of the method: as §1

| Test System | surviving fraction (TEMOZOLOMIDE; 0.5 nM) | surviving fraction (TEMOZOLOMIDE; 1 nM) | surviving fraction (TEMOZOLOMIDE; 5 nM) | surviving fraction (TEMOZOLOMIDE; 10 nM) | surviving fraction (TEMOZOLOMIDE; 50 nM) | surviving fraction (TEMOZOLOMIDE; 100 nM) | surviving fraction (TEMOZOLOMIDE; 500 nM) | surviving fraction (TEMOZOLOMIDE; 1000 nM) | surviving fraction ([1]; 0.5 nM) | surviving fraction ([1]; 1 nM) | surviving fraction ([1]; 5 nM) | surviving fraction ([1]; 10 nM) | surviving fraction ([1]; 50 nM) | surviving fraction ([1]; 100 nM) | surviving fraction ([1]; 500 nM) | surviving fraction ([1]; 1000 nM) |
| --- | --- | --- | --- | --- | --- | --- | --- | --- | --- | --- | --- | --- | --- | --- | --- | --- |
| CCK81 LARGE INTESTINE | 0.766 ± 0.075 | 0.729 ± 0.06 | 0.744 ± 0.041 | 0.771 ± 0.024 | 0.775 ± 0.083 | 0.745 ± 0.048 | 0.789 ± 0.033 | 0.817 ± 0.055 | – | – | – | – | – | – | – | – |
| G292 BONE | 1.01 ± 0.015 | 0.9995 ± 0.0082 | 0.981 ± 0.037 | 1.05 ± 0.018 | 1.04 ± 0.062 | 1.02 ± 0.025 | 0.986 ± 0.048 | 0.992 ± 0.029 | 0.983 ± 0.044 | 0.978 ± 0.019 | 1.01 ± 0.056 | 1.01 ± 0.038 | 1.03 ± 0.04 | 1.028 ± 0.0063 | 0.952 ± 0.021 | 0.97 ± 0.036 |
| HCC38 BREAST | 1.34 ± 0.19 | 1.25 ± 0.04 | 1.31 ± 0.13 | 1.39 ± 0.032 | 1.33 ± 0.11 | 1.32 ± 0.06 | 1.3 ± 0.26 | 1.33 ± 0.11 | 1.26 ± 0.17 | 1.2 ± 0.084 | 1.28 ± 0.02 | 1.14 ± 0.063 | 1.19 ± 0.11 | 1.23 ± 0.099 | 1.22 ± 0.18 | 1.24 ± 0.17 |
| HCC70 BREAST | 0.984 ± 0.016 | 1.04 ± 0.11 | 1.07 ± 0.064 | 1.08 ± 0.054 | 1.06 ± 0.079 | 1.15 ± 0.095 | 1.06 ± 0.09 | 1.09 ± 0.086 | 0.976 ± 0.033 | 0.984 ± 0.15 | 1.03 ± 0.093 | 0.97 ± 0.041 | 1.055 ± 0.0098 | 1.06 ± 0.055 | 0.939 ± 0.026 | 0.946 ± 0.068 |
| HMLE3 BREAST | 1.01 ± 0.053 | 1.12 ± 0.085 | 1.01 ± 0.11 | 1.04 ± 0.021 | 1.03 ± 0.039 | 1.03 ± 0.026 | 1.03 ± 0.044 | 1.15 ± 0.079 | 0.951 ± 0.038 | 0.942 ± 0.037 | 0.977 ± 0.09 | 0.949 ± 0.072 | 0.953 ± 0.088 | 0.956 ± 0.061 | 0.914 ± 0.036 | 0.906 ± 0.056 |
| HMT3552 BREAST | 1.09 ± 0.094 | 1.07 ± 0.015 | 1.05 ± 0.038 | 1.09 ± 0.071 | 1.15 ± 0.06 | 1.19 ± 0.063 | 1.09 ± 0.039 | 1.15 ± 0.022 | 0.943 | 0.942 | 1.08 | 1.03 | 1.23 | 1.18 | 1.18 | 1.27 |
| HS57T BREAST | 0.907 ± 0.067 | 0.947 ± 0.056 | 1.01 ± 0.051 | 1.04 ± 0.049 | 1.02 ± 0.033 | 1.03 ± 0.074 | 0.93 ± 0.058 | 0.948 ± 0.071 | 0.959 ± 0.063 | 0.892 ± 0.0062 | 1 ± 0.045 | 0.967 ± 0.037 | 1.08 ± 0.055 | 1.01 ± 0.017 | 0.934 ± 0.049 | 0.917 ± 0.055 |
| HS578T BREAST | 0.927 ± 0.11 | 0.886 ± 0.094 | 0.91 ± 0.15 | 0.913 ± 0.054 | 1.05 ± 0.1 | 0.916 ± 0.074 | 0.936 ± 0.12 | 0.942 ± 0.12 | 1.13 ± 0.053 | 0.828 ± 0.05 | 1 ± 0.12 | 1.01 ± 0.15 | 0.821 ± 0.06 | 1.09 ± 0.15 | 0.999 ± 0.049 | 0.989 ± 0.073 |
